Laboratory results from patent publication US10918645B2 (LIFEARC, priority 2016, dated 2021).

Experiments:
Assay type in all cases: biochemical
Settings in all cases: 1 μM inhibitor concentration
HIPK2 = HIPK2 (Homo sapiens (Human), UniProt Q9H2X6); assay: HIPK2 kinase selectivity assay
Description: 5-20 mU of HIPK2 (diluted in 50 mM Tris (pH 7.5), […] EGTA, 1 mg/ml BSA, 0.1%, b-Mercaptoethanol) is assayed against MBP in a final volume of 25.5 μl containing 50 mM Tris (pH 7.5), 0.1 mM EGTA, 0.1%, b-Mercaptoethanol, 0.33 mg/ml MBP, 10 mM magnesium acetate and 0.005 mM [33P-g-ATP](500-1000 cpm/pmole) and incubated for 30 mins at room temperature. Assays are stopped by addition of 5 μl of 0.5M (3%) orthophosphoric acid. Assays are harvested onto P81 Unifilter plates using a wash buffer of 50 mM orthophosphoric acid.

MST4 = MST4 (Homo sapiens (Human), UniProt Q9P289); assay: MST4 kinase selectivity assay
Description: 5-20 mU of MST4 (diluted in 50 mM Tris (pH 7.5), 0.1 mM EGTA) is assayed against MBP in a final volume of […] containing 50 mM Tris (pH 7.5), 0.1 mM EGTA, 0.33 mg/ml MBP, 10 mM magnesium acetate and 0.02 mM [33P-g-ATP](500-1000 cpm/pmole) and incubated for 30 mins at room temperature. Assays are stopped by addition of […] of 0.5M (3%) orthophosphoric acid. Assays are harvested onto P81 Unifilter plates using a wash buffer of 50 mM orthophosphoric acid.

PKCa = PKCa (Homo sapiens (Human), UniProt P17252); assay: PKCa kinase selectivity assay
Description: PKCa (5-20 mU diluted in 20 mM Hepes pH 7.4, 0.03% Triton X-100) is assayed against Histone H1 in the presence of PtdSerine and DAG (0.1 mg/ml. and 10 μg/ml) and 0.1 mM CaCl2. The assay is carried out in a final volume of 25.5 μl containing 20 mM Hepes pH 7.4, 0.03% Triton X-100, 0.1 mg/ml Histone H1, 10 mM magnesium acetate and 0.02 mM[33P-g-ATP] (50-1000 cpm/pmole) and incubated for 30 min at room temperature. Assays are stopped by addition of 5 μl of 0.5 M (3%) orthophosphoric acid and then harvested onto P81 Unifilter plates with a wash buffer of 50 mM orthophosphoric acid.
PtdSer/DAG preparation:—PtdSer stock=10 mg/ml in MeOH/Chloroform (1:2). Dry down required amount. Resuspend in appropriate volume of 10 mM Hepes pH 7.4. Vortex and briefly sonicate. (2×10-15 seconds at 10-15 seconds apart). DAG stock=10 mg/ml in MeOH/chloroform (1:2). Dry down required amount. Add sonicated PtdSer solution. Vortex and sonicate.

GSK3b = GSK3b (Homo sapiens (Human), UniProt P49841); assay: GSK3b kinase selectivity assay
Description: GSK3b (5-20 mU diluted in 20 mM MOPS pH 7.5, 1 mM EDTA, 0.01% Brij35, 5% glycerol, 0.1% b-mercaptoethanol, 1 mg/ml BSA) is assayed against Phospho-GS2 peptide ([…](PO4)EDEEE) in a final volume of 25.5 μl containing 8 mM MOPS pH 7.0, 0.2 mM EDTA, 20 μM Phospho GS2 peptide, 10 mM magnesium acetate and 0.005 mM [33P-g-ATP] (50-1000 cpm/pmole) and incubated for 30 min at room temperature. Assays are stopped by addition of 5 μl of 0.5 M (3%) orthophosphoric acid and then harvested onto P81 Unifilter plates with a wash buffer of 50 mM orthophosphoric acid.

HER4 = HER4 (Homo sapiens (Human), UniProt Q15303); assay: HER4 kinase selectivity assay
Description: (§1) HER4 (5-20 mU diluted in 50 mM Tris pH 7.5, 0.1 mM EGTA, 0.1% β-mercaptoethanol, 1 mg/ml BSA) is assayed against Poly Glut Tyr in a final volume of 25.51 μl containing 50 mM Tris pH 7.5, 0.1 mM EGTA, 1 mg/ml Poly Glut Tyr, 10 mM magnesium acetate and 0.005 mM [33P-γ-ATP] (50-1000 cpm/pmole) and incubated for 30 min at room temperature. Assays are stopped by addition of 5 μl of 0.5 M (3%) orthophosphoric acid and then harvested onto P81 Unifilter plates with a wash buffer of 50 mM orthophosphoric acid.

JNK1 = JNK1 (Homo sapiens (Human), UniProt P45983); assay: JNK1 kinase selectivity assay
Description: JNK1a1/SAPK1c (5-20 mU diluted in 50 mM Tris pH 7.5, 0.1 mM EGTA, 1 mg/ml BSA, 0.1% b-mercaptoethanol) is assayed against ATF2 (activating transcription factor in a final volume of 25.5 μl in 50 mM Tris pH 7.5, 0.1 mM EGTA, 0.1% b-Mercaptoethanol, ATF2 (3 μM), 10 mM magnesium acetate and 0.02 mM [33P-g-ATP] (500-1000 cpm/pmole) and incubated for 30 min at room temperature. Assays are stopped by addition of 5 μl of 0.5 M (3%) orthophosphoric acid and then harvested onto P81 Unifilter plates with a wash buffer of 50 mM orthophosphoric acid.

VEG-FR = VEG-FR kinase selectivity assay
Description: VEG-FR (5-20 mU diluted in 50 mM Tris pH 7.5, 0.1 mM EGTA, 1 mg/ml BSA) is assayed against a substrate peptide ([…]) in a final volume of 25.5 μl containing 50 mM Tris pH 7.5, 300 µM substrate peptide, 10 mM magnesium acetate and 0.02 mM [33P-g-ATP] (50-1000 cpm/pmole) and incubated for 30 min at room temperature. Assays are stopped by addition of 5 μl of 0.5 M (3%) orthophosphoric acid and then harvested onto P81 Unifilter plates with a wash buffer of 50 mM orthophosphoric acid.

LKB1 = LKB1 (Homo sapiens (Human), UniProt Q15831); assay: LKB1 kinase selectivity assay
Description: as §1, with “LKB1” for “HER4”, “Poly Glut Tyr” left out, “25.5” for “25.51”, “0.2 mM […],” for “1 mg/ml Poly Glut Tyr,”, “0.02” for “0.005”

Sequence of JNK1 (P45983 other isoform, or with tags, fused parts or gaps, species assumed): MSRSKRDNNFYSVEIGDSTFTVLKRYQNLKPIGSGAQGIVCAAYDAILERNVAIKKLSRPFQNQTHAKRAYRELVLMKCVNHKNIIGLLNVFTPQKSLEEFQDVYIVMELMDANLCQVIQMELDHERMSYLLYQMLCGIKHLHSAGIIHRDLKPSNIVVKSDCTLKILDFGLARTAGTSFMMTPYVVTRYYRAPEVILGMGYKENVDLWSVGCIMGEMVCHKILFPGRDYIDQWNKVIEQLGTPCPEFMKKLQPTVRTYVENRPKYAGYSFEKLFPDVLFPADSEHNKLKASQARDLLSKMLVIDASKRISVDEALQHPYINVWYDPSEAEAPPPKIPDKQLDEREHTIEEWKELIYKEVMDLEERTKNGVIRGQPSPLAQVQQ
Sequence of LKB1 (Q15831 whole entry, species assumed): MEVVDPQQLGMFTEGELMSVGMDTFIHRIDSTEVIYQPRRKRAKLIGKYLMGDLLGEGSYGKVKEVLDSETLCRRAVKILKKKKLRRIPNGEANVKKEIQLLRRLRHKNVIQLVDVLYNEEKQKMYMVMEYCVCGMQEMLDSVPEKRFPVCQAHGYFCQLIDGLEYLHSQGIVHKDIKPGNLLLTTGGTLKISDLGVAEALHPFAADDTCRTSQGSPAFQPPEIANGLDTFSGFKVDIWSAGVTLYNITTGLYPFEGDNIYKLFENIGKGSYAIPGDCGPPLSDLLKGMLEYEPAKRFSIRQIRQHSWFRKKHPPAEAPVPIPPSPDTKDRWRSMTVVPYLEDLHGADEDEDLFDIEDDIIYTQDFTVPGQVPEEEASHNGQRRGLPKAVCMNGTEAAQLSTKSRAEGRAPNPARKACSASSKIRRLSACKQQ
Sequence of LKB1 (Q7RTN6 whole entry partner, species assumed): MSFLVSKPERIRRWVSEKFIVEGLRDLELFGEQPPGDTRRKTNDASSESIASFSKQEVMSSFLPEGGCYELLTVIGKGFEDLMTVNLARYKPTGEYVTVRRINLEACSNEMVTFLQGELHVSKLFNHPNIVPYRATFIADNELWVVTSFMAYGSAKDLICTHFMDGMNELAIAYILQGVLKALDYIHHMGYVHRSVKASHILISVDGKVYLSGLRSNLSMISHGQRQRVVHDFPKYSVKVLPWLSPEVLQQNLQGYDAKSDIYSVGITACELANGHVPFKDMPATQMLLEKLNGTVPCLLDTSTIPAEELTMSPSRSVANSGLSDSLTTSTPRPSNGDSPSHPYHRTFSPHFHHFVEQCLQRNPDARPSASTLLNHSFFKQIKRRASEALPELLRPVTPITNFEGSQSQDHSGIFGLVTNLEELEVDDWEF
Sequence of LKB1 (Q9Y376 whole entry partner, species assumed): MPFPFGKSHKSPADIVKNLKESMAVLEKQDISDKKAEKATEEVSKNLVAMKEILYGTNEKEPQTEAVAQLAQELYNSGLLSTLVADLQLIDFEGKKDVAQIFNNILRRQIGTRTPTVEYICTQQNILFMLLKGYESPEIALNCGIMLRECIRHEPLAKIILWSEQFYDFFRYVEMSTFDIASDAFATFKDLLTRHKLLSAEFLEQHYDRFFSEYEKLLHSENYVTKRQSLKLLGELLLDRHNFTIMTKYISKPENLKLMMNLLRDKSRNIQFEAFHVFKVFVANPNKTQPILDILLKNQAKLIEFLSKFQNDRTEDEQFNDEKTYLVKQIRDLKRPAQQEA
Sequence of HIPK2 (Q9H2X6 whole entry, species assumed): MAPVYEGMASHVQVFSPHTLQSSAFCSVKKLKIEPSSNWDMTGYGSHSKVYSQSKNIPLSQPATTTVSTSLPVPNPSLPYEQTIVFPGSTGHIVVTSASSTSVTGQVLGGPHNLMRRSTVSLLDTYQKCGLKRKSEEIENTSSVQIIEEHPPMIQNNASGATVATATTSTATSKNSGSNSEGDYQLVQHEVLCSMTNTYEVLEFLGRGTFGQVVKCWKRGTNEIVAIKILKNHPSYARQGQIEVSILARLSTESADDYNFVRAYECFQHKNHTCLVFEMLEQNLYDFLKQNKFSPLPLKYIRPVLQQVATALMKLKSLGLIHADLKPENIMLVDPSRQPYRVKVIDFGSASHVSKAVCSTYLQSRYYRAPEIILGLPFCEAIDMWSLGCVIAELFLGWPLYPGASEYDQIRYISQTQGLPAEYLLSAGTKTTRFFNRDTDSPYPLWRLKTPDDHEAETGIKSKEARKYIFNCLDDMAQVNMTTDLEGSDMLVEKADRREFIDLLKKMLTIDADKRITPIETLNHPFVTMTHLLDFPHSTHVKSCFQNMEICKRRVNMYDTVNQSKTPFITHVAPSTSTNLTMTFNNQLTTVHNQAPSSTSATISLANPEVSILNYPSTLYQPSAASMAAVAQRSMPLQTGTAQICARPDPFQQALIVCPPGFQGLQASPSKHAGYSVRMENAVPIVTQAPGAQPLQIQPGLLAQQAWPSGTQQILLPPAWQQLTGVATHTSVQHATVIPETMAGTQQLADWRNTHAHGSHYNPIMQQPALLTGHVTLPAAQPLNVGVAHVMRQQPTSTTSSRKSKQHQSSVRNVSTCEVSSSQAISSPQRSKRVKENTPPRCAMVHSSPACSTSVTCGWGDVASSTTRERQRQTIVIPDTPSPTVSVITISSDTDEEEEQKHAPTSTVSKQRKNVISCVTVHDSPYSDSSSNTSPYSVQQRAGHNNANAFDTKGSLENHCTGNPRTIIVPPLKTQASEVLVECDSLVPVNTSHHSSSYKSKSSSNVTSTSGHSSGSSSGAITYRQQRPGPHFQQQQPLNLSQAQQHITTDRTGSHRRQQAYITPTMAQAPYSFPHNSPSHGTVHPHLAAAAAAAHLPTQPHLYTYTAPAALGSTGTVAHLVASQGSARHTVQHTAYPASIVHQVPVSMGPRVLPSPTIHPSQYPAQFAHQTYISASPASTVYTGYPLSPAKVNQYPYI
Sequence of GSK3b (P49841 whole entry, species assumed): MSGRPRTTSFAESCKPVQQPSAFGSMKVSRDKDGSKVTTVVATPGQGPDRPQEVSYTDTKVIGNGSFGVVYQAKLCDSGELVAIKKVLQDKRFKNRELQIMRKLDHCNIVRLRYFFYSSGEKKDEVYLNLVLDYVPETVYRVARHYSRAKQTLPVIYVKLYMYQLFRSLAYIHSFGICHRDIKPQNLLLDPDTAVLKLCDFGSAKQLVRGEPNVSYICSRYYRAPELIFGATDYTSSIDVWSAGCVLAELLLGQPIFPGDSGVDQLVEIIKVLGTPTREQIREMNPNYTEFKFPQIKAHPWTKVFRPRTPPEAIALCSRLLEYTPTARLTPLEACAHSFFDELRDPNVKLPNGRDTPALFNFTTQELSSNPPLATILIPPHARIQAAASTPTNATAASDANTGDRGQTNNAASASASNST
Sequence of MST4 (Q9P289 whole entry, species assumed): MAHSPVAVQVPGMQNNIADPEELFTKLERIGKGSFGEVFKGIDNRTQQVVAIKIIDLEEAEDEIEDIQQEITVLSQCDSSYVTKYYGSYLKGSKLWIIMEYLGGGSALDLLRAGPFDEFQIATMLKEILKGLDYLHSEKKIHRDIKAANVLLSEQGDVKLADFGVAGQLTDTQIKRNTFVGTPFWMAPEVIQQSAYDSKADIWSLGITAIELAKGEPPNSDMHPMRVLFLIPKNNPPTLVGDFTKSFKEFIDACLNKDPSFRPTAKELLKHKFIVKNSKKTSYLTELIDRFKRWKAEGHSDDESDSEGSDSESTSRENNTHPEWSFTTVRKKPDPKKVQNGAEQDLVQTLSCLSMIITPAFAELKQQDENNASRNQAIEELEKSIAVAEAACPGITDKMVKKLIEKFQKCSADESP
Sequence of HER4 (Q15303 26-1308, species assumed): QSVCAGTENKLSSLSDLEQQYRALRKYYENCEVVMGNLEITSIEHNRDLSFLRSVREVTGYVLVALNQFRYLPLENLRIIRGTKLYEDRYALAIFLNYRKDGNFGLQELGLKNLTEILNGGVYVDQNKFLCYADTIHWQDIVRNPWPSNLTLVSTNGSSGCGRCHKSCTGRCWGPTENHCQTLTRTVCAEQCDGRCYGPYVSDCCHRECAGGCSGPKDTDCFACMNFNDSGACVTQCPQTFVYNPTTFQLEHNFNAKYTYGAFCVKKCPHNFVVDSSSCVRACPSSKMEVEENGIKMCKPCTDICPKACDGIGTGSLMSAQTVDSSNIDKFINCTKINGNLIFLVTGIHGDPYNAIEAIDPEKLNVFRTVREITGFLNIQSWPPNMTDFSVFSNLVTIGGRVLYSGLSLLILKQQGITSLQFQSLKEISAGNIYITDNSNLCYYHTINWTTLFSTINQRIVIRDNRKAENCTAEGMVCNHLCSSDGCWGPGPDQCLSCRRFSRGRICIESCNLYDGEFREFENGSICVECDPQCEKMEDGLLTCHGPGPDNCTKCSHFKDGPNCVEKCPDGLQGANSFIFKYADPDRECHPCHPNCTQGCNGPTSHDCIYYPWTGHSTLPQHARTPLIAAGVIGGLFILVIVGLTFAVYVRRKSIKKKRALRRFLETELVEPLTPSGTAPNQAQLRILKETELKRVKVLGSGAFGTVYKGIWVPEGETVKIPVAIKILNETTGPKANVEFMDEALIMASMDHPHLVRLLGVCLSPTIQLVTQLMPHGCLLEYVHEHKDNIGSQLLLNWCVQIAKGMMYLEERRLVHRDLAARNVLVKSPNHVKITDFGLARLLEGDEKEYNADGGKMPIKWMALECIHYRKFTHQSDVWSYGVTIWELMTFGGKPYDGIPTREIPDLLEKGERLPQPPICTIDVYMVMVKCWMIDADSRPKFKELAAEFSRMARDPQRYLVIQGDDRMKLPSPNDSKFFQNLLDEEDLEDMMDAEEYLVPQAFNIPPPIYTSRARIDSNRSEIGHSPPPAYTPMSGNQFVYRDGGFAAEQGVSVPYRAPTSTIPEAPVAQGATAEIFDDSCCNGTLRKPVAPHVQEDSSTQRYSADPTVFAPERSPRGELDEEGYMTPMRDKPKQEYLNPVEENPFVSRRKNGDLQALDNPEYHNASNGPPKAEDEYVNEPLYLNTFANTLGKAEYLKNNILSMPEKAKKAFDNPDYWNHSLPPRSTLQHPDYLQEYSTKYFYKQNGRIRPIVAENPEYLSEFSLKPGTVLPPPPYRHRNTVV

| Compound | percentage inhibition of HIPK2 (HIPK2) [percentage] | percentage inhibition of MST4 (MST4) [percentage] | percentage inhibition of PKCa (PKCa) [percentage] | percentage inhibition of GSK3b (GSK3b) [percentage] | percentage inhibition of HER4 (HER4) [percentage] | percentage inhibition of JNK1 (JNK1) [percentage] | percentage inhibition of VEG-FR (VEG-FR) [percentage] | percentage inhibition of LKB1 (LKB1) [percentage] |
| --- | --- | --- | --- | --- | --- | --- | --- | --- |
| CC(C)n1ncc2c1CN(C1CCN(C)CC1)c1nccc3[nH]nc-2c13 [Example 68] | 0 | 0 | 2 | 0 | 1 | 48 | 42 | 0 |
| c1cc2[nH]nc3c2c(n1)N(C1CCC1)CCC3 [Example 22, 6-cyclobutyl-6,7,8,9-tetrahydro-2H-1,2,5,6-tetraazabenzo[cd]azulene] | 11 | 6 | 0 | 16 | 8 | 0 | 0 | 20 |
| c1cc2[nH]nc3c2c(n1)N(C1CCCC1)CCC3 [Example 23, 6-cyclopentyl-6,7,8,9-tetrahydro-2H-1,2,5,6-tetraazabenzo[cd]azulene] | 3 | 0 | 0 | 0 | 3 | 0 |  | 16 |
| CN1CCC(N2Cc3ccccc3-c3n[nH]c4ccnc2c34)CC1 [Example 55] | 1 | 0 | 0 | 0 | 0 | 49 | 19 | 0 |
| c1cc2[nH]nc3c2c(n1)N(C1CCOCC1)CCC3 [Example 29, 6-(tetrahydro-2H-pyran-4-yl)-6,7,8,9-tetrahydro-2H-1,2,5,6-tetraazabenzo[cd]azulene] | 3 | 1 | 11 | 0 | 10 | 0 | 9 | 6 |
